From patent publication US9884063B2, “Amido-substituted azole compounds” (Bayer Pharma Aktiengesellschaft, priority 2014, dated 2018) come the findings set out here.

For experiment [1], the target named is T1, TNKS1 (Homo sapiens, UniProt O95271).
T1 sequence (O95271 1-1327): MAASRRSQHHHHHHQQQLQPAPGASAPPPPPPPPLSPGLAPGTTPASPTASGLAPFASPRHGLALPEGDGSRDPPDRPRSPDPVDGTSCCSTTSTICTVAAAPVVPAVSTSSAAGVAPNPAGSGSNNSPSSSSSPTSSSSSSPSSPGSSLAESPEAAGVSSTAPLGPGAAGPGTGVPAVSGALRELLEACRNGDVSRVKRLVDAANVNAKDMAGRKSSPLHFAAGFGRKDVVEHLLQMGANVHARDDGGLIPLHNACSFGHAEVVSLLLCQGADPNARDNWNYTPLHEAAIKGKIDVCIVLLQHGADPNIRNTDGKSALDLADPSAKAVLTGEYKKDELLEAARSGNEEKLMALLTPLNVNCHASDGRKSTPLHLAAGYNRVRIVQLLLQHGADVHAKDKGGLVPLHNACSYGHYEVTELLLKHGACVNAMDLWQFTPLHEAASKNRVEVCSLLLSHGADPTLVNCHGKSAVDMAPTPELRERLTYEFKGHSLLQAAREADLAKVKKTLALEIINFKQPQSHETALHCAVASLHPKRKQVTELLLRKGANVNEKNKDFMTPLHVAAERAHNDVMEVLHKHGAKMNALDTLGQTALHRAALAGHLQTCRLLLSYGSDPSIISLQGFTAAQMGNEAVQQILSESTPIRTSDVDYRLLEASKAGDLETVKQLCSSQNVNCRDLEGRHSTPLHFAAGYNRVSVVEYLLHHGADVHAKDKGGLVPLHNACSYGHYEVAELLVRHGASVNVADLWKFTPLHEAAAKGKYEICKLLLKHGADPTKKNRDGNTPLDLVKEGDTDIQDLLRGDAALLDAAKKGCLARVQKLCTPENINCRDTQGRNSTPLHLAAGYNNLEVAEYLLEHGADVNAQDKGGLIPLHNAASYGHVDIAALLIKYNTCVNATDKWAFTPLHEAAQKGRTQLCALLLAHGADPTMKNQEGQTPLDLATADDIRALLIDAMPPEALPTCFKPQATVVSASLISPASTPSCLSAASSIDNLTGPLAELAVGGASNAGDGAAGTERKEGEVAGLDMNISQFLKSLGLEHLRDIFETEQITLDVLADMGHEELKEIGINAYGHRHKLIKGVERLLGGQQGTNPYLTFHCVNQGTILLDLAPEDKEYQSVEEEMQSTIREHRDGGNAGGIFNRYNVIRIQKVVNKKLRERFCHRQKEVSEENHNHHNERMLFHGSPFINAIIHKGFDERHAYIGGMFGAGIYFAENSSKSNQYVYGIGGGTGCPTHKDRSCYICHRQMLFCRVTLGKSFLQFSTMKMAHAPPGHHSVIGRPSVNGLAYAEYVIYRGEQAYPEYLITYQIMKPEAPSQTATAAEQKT
Kind of experiment: Modified TNKS1 Assay 3 (BPS kit #80573, biotin-NAD+, 96 well). The experiment is classed as biochemical. Conditions: human TNKS1, BPS kit #80573, 96 well. In outline:
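Chemiluminescent assay of TNKS1-catalysed ribosylation of a protein substrate with biotin-labelled NAD+, detected via streptavidin-HRP; run per kit protocol. Inhibition lowers the signal, and IC50 is the compound concentration halving the normalised readout.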

Experiment [2] concerns wildtype Wnt signaling cascade. The experiment in a line: HEK293 TOP Assay (Super TopFlash luciferase reporter, Wnt-3a stimulated). The experiment is classed as cell-based. Conditions: Homo sapiens, HEK293, 16 h, HEK293 TOP reporter cell line, Wnt-3a at EC50, 16 hours incubation, compound dilution series 50 μM to 15 nM. An outline of the steps: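 Compounds (50 μM down to 15 nM, 3.16-fold steps, in CAFTY buffer pH 7.4, 2 mM Ca2+, 0.01% BSA) tested in parallel on TOP and FOP HEK293 reporter lines to define selective wildtype Wnt inhibition. Pathway driven by recombinant human Wnt-3a applied at 2500–5 ng/ml in two-fold dilutions.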

In the case of `O=C(Nc1ccc(NC(=O)c2[nH]cnc2C(=O)NCCN2CCCCC2)cn1)c1ccc(F)cc1Cl` [Example 110, N^5-{6-[(2-chloro-4-fluorobenzoyl)amino]pyridin-3-yl}-N^4-[2-(piperidin-1-yl)ethyl]-1H-imidazole-4,5-dicarboxamide], the half-inhibitory concentration (IC50) (commonly the midpoint of a concentration-inhibition curve) in experiment [1] was 40 nM; in experiment [2] it was 60 nM.
